Values joined by “and” are separate entries in the source; they are usually repeats but may differ in a detail not shown here. Identical values can stand only once. Counter-ions that a name gives are not always drawn.
Tests used:
in vitro [1] = conditions: chlorocebus sabaeus
SARS-CoV-2 [2] = assay: microbe, parasite or virus in culture; assay type: functional, organism-based, Chlorocebus sabaeus, Vero C1008; conditions: Severe acute respiratory syndrome coronavirus 2, Vero C1008, 48 h
in vitro [3] = conditions: chlorocebus sabaeus; remark: listed apart in the source
SARS-CoV-2 [4] = conditions: Chlorocebus sabaeus; Vero C1008; 10 uM
[5] = VERO-E6 cells, Selectivity index
[6] = VERO-E6 cells (Vero C1008), uninfected, CC50

Row | Compound | selectivity ratio (in vitro [1]; [5]) | IC50 (SARS-CoV-2 [2]) | CC50 at 48 h (in vitro [3]; vero c1008, CC50) | selectivity ratio (in vitro [1]; vero c1008, Selectivity index) | CC50 at 48 h (in vitro [3]; [6]) | inhibition (SARS-CoV-2 [4])
1 | COc1ccc(C[C@H]2NC[C@H](O)[C@H]2OC(C)=O)cc1 [ANISOMYCIN] | 1.11 | 0.09 µM | 0.1 µM |  |  | 
2 | O[C@@H](COc1cccc2ncccc12)CN1CCN([C@@H]2c3ccccc3[C@@H]3[C@H](c4ccccc42)C3(F)F)CC1 [ZOSUQUIDAR TRIHYDROCHLORIDE] |  | 8.4 µM | 9.11 µM | 1.08 |  | 
3 | CC(C)(C)C(=O)/C(=C/c1cccc([N+](=O)[O-])c1)n1cncn1 | 1.23 | 4.33 µM |  |  | 5.31 µM | 
4 | Sodium orthovanadate |  |  |  |  |  | 0.13%
5 | Cc1cc(O)c2c(=O)c3c(O)cc(O)c4c5c(O)cc(O)c6c(=O)c7c(O)cc(C)c8c1c2c(c34)c(c78)c65 [HYPERICIN] | 5.24 | 0.25 µM |  |  | 1.31 µM | 
6 | CC(C)C[C@H](NC(=O)[C@@H](NC(=O)c1cccc(-c2ccccc2)n1)[C@@H](C)O)B(O)O [DELANZOMIB] | 0.35 | 1.3 µM |  |  | 0.46 µM | 
7 | Cc1[nH]c(/C=C2\C(=O)Nc3ccc(S(=O)(=O)N(C)c4cccc(Cl)c4)cc32)c(C)c1C(=O)N1CCN(C)CC1 | 0.96 | 10.9 µM |  |  | 10.4 µM | 
8 | ACRIFLAVINE HYDROCHLORIDE |  |  |  |  |  | -0.35%
9 | COc1cc(C[C@H]2c3cc(OC)c(OC)cc3CCN2C)c(Oc2cc3c(cc2OC)-c2c(OC)c(OC)cc4c2[C@H](C3)N(C)CC4)cc1OC [THALICARPINE] | 8.53 | 3.87 µM |  |  | > 33 µM | 
10 | CC(=O)OC[C@]12CCC(C)=C[C@H]1O[C@@H]1[C@H](O)[C@@H](OC(C)=O)[C@@]2(C)[C@@]12CO2 |  |  |  |  |  | -0.2%
11 | Vitamin B12 |  |  |  |  |  | 0.12%
12 | COc1ccc(CNc2nc(N(CCO)CCO)nc3c2ncn3C(C)C)cc1 | 0.82 | 7.95 µM |  |  | 6.49 µM | 
13 | MERBROMIN |  |  |  |  |  | 0%
14 | COCCNCc1ccc(-c2cc3nccc(Oc4ccc(NC(=S)NC(=O)Cc5ccc(F)cc5)cc4F)c3s2)nc1 [GLESATINIB] | 0.62 | 1.04 µM |  |  | 0.64 µM | 
15 | TOCOFERSOLAN |  |  |  |  |  | 41.8%
16 | NYSTATIN |  |  |  |  |  | 0.08%
17 | CC(C)[C@H]1c2ccc(F)cc2CC[C@@]1(CCN(C)CCCc1nc2ccccc2[nH]1)OC(=O)C1CC1 | 0.99 | 8.21 µM |  |  | 8.13 µM | 
18 | N[C@H]1CC[C@H](N[C@@H]2C[C@H]2c2ccccc2)CC1 | 1 | > 33 µM |  |  | > 33 µM | 
19 | Nc1ncnc2c1c(-c1cnc3[nH]ccc3c1)nn2C1CCCC1 | 0.76 | 11.8 µM |  |  | 8.95 µM | 
20 | Clc1ccccc1CNC[C@H]1CC[C@H](CNCc2ccccc2Cl)CC1 | 1.36 | 22.7 µM |  |  | 30.9 µM | 
21 | VITAMIN E |  |  |  |  |  | 0.25% (2×) and -0.04% (2×)
22 | Cc1c(CN2CCN(C(=O)[C@H](C)O)CC2)sc2c(N3CCOCC3)nc(-c3cnc(N)nc3)nc12 [APITOLISIB] | 0.22 | 2.31 µM |  |  | 0.5 µM | 

Row | Compound | selectivity ratio (in vitro [1]; [5]) | IC50 (SARS-CoV-2 [2]) | CC50 at 48 h (in vitro [3]; vero c1008, CC50) | selectivity ratio (in vitro [1]; vero c1008, Selectivity index) | CC50 at 48 h (in vitro [3]; [6]) | inhibition (SARS-CoV-2 [4])
23 | Cc1cc2c(F)c(Oc3ncnn4cc(OC[C@@H](C)OC(=O)[C@H](C)N)c(C)c34)ccc2[nH]1 [BRIVANIB ALANINATE] | 0.4 | 6.5 µM |  |  | 2.58 µM | 
24 | PHENYLMERCURIC ACETATE |  |  |  |  |  | -0.23%
25 | CC(C)(C)c1ccccc1Oc1ncccc1NC(=O)Nc1ccc(OC(F)(F)F)cc1 | 1.41 | 7 µM |  |  | 9.9 µM | 
26 | N#Cc1cc2c(OCC(O)CN3CCN(C(c4ccccc4)c4ccccc4)CC3)cccc2[nH]1 (racemic; form 1) | 0.49 | 25.6 µM |  |  | 12.7 µM | 
27 | CCN(CC)Cc1cc(Nc2ccnc3cc(Cl)ccc23)ccc1O [AMODIAQUINE] | 4.12 | 4.07 µM |  |  | 16.8 µM | 
28 | CYANOCOBALAMIN |  |  |  |  |  | 0.04%
29 | Cc1[nH]c(/C=C2\C(=O)Nc3cc(-c4ccccc4)ccc32)c(C)c1CCC(=O)O | 0.01 | 4.1 µM |  |  | 0.03 µM | 
30 | O=C(C1CC1)N1CC[C@@H](Cc2n[nH]c(=O)n2-c2ccc(-c3ccc4occc4c3)cc2)C1 |  | 17 µM | > 33 µM | 1.94 |  | 
31 | Nc1nccc2c1ncn2[C@@H]1C=C(CO)[C@@H](O)[C@H]1O | 0.14 | 2.07 µM |  |  | 0.3 µM | 
32 | Cc1nc2cnc3ccc(C#Cc4cccnc4)cc3c2n1-c1ccc(C(C)(C)C#N)cc1 | 1 | 0.11 µM |  |  | 0.11 µM | 
33 | CCS(=O)(=O)c1ccc(CC(=O)Nc2cc(Cl)c(-c3ccccc3OC(F)(F)F)c(Cl)c2)cc1 | 0.58 | 21 µM |  |  | 12.1 µM | 
34 | O=c1cc(N2CCOCC2)oc2c(-c3cccc4c3sc3ccccc34)cccc12 | 0.15 | 3.79 µM |  |  | 0.58 µM | 
35 | CC(C)n1nc(-c2cc3cc(O)ccc3[nH]2)c2c(N)ncnc21 |  | > 33 µM | 1.63 µM | 0.05 |  | 
36 | Cc1cc(N2C[C@@H](C)N[C@@H](C)C2)ncc1-c1ccc(-c2nc3c(ccn3C)c(=O)[nH]2)cc1 |  | > 33 µM |  |  | 7.14 µM | 
37 | O=C1OC2(c3ccc(O)cc3Oc3cc(O)ccc32)c2ccccc21 [FLUORESCEIN] |  | 0.67 µM |  |  | > 33 µM | 
38 | Cc1cnc(Nc2ccc(F)cc2Cl)nc1-c1c[nH]c(C(=O)N[C@H](CO)c2cccc(Cl)c2)c1 | 0.35 | 5.54 µM |  |  | 1.92 µM | 
39 | Cc1ccc(Nc2ncc3c(n2)N(C)C(=O)N(c2cc(NC(=O)c4cccc(C(F)(F)F)c4)ccc2C)C3)cn1 | 0.12 | 5.21 µM |  |  | 0.61 µM | 
40 | CN1[C@@H]2CC[C@H]1C[C@@H](OC(=O)c1cc(Cl)cc(Cl)c1)C2 [BEMESETRON] |  | > 33 µM |  |  | 0.02 µM | 
41 | Cc1c(O)cccc1C(=O)NC(CSc1ccccc1)C(O)CN1CC2CCCCC2CC1C(=O)NC(C)(C)C (centres undefined) |  | 14.3 µM |  |  | > 33 µM | 
42 | COc1ccc(-c2c[nH]c3nccc(-c4ccsc4)c23)c(OC)c1 | 0.05 | 15.8 µM |  |  | 0.82 µM | 
43 | OCCCNc1cc(-c2ccnc(Nc3cccc(Cl)c3)n2)ccn1 | 1.03 | 7.9 µM |  |  | 8.17 µM | 
44 | CC(C)n1cnc2c(NCCc3ccc(O)cc3)nc(-c3csc4ccccc34)nc21 |  | > 33 µM |  |  | 12.6 µM | 

Row | Compound | selectivity ratio (in vitro [1]; [5]) | IC50 (SARS-CoV-2 [2]) | CC50 at 48 h (in vitro [3]; vero c1008, CC50) | selectivity ratio (in vitro [1]; vero c1008, Selectivity index) | CC50 at 48 h (in vitro [3]; [6]) | inhibition (SARS-CoV-2 [4])
45 | ESCIN |  |  |  |  |  | -0.23%
46 | hemin |  |  |  |  |  | -0.12%
47 | Cc1cc(C)c2c(c1)[C@@H](N(Cc1cc(C(F)(F)F)cc(C(F)(F)F)c1)c1nnn(C)n1)CCCN2C[C@H]1CC[C@H](C(=O)O)CC1 [EVACETRAPIB] |  | > 33 µM |  |  | > 33 µM | 
48 | Cc1ncc(NC(=O)c2ccc(CN3CCN(C)CC3)c(C(F)(F)F)c2)cc1Nc1nccc(-c2cccnc2)n1 [FLUMATINIB] |  | > 33 µM |  |  | > 33 µM | 
49 | CCN(CC)c1ccc2cc(-c3nc4ccccc4[nH]3)c(=O)oc2c1 |  | 0.36 µM |  |  | > 33 µM | 
50 | CCc1c(-c2ccc3[nH]ncc3c2)cnc(N)c1-c1ccc(O)cc1 |  | > 33 µM |  |  | > 33 µM | 
51 | CC(C)(C)c1cc(C=C(C#N)C#N)cc(Br)c1O | 1.18 | 8.77 µM |  |  | 10.4 µM | 
52 | O=C(O)c1ccc(N2C(=O)/C(=C/c3ccc(-c4ccc([N+](=O)[O-])cc4)o3)C=C2c2ccccc2)cc1 |  | > 33 µM |  |  | 12.8 µM | 
53 | COC(=O)C[C@@](O)(CCC(C)(C)O)C(=O)O[C@@H]1C(OC)=C[C@]23CCCN2CCc2cc4c(cc2[C@@H]13)OCO4 | 2.46 | 0.79 µM |  |  | 1.94 µM | 
54 | CC1=C(/C=C/C(C)=C/C=C/C(C)=C/C(=O)Nc2ccc(O)cc2)C(C)(C)CCC1 [FENRETINIDE] |  | > 33 µM |  |  | 10.5 µM | 
55 | CN(C)c1cccc(-c2c3c(=O)n(-c4ccccc4Cl)[nH]c3cc(=O)n2C)c1 [SETANAXIB] |  | 11.8 µM | 14.8 µM | 1.26 |  | 
56 | CCN(CC)CCCCNc1ncc2cc(-c3c(Cl)cccc3Cl)c(NC(=O)NC(C)(C)C)nc2n1 |  | > 33 µM |  |  | 12.7 µM | 
57 | CN(Cc1cnc2nc(N)nc(N)c2n1)c1ccc(C(=O)N[C@@H](CCC(=O)O)C(=O)O)cc1 [METHOTREXATE] |  | 0.05 µM |  |  | 0.05 µM | 
58 | CC[C@H](CC#N)OC(=O)N[C@@H](C)c1cccc(NC(=O)Nc2ccc(-c3cnco3)c(OC)c2)c1 [AVN-944] | 0.67 | 1.14 µM |  |  | 0.76 µM | 
59 | CCCCCCCCCCCCCCOc1ccc(C(=O)O)o1 [TOFA] |  | 4.04 µM |  |  | > 33 µM | 
60 | Cc1c(C(=O)c2cccc3ccccc23)c2cccc3c2n1[C@H](CN1CCOCC1)CO3 [WIN-552122] |  | > 33 µM |  |  | 7.06 µM | 
61 | CC(C)(C)c1cc(/C=C(\C#N)C(N)=S)cc(C(C)(C)C)c1O [TYRPHOSTIN AG 879] |  | > 33 µM |  |  | > 33 µM | 
62 | CC(C)C[C@H](NC(=O)CNC(=O)c1cc(Cl)ccc1Cl)B(O)O [IXAZOMIB] |  | > 33 µM |  |  | 2.7 µM | 
63 | CNC(=O)Nc1ccc(-c2nc(N3CC4CCC(C3)O4)c3cnn(C4CCC5(CC4)OCCO5)c3n2)cc1 | 0.01 | 21.6 µM |  |  | 0.18 µM | 
64 | CCCCOCCOc1ccc(-c2ccc3c(c2)/C=C(/C(=O)Nc2ccc([S@@+]([O-])Cc4cncn4CCC)cc2)CCCN3CC(C)C)cc1 [CENICRIVIROC] |  | > 33 µM |  |  | 11.7 µM | 
65 | Nc1c[nH]c(=O)c2cc(-c3ccccc3)sc12 |  | 5.26 µM |  |  | > 33 µM | 
66 | CC[n+]1c(-c2ccccc2)c2cc(N)ccc2c2ccc(N)cc21 [HOMIDIUM] |  | > 33 µM |  |  | 2.04 µM | 

Source: ChEMBL document CHEMBL4495565, “Cytopathic SARS-Cov2 screening on VERO-E6 cells in a large repurposing effort” (2020)
